Assay results taken from patent US5652366A, “DI (1R)-(-)camphosulfonic acid) salt, preparation thereof and use thereof” (Rhone-Poulenc Rorer Pharmaceuticals Inc., priority 1995, dated 1997).
Like-named read-outs stand apart in the source and are kept apart here.

Assays:
[1] = system: spontaneously hypertensive rat (SHR); test: Oral antihypertensive activity in conscious spontaneously hypertensive rat (SHR); format: in vivo
Procedure: The oral antihypertensive activity of compounds of the invention were examined in conscious spontaneously hypertensive rats. The rats were anesthetized with sodium pentabarbatol (50 mg/kg i.p.). A telemetry transducer was implanted into the rats abdomen via midline incision. The cannula of the transducer was inserted into the abdomenal aorta to allow direct measurement of arterial pressure in the conscious SHR. The transducer was secured to the abdomenal wall. After recovery from surgery (minimum of seven days), the SHR were placed on a receiver plate and the transducer/transmitter was activated. Systolic, diastolic and mean arterial pressure and heart rate were recorded for 1.5 hours in the unrestrained conscious rat to establish a stable baseline. Each rat then received a single dose of the compound of the invention to be tested, or vehicle, and changes in arterial pressure and heart rate were monitored for 20 hours and recorded.

[2] = system: normotensive anesthetized rat; test: In vivo mean arterial pressure and heart rate in normotensive anesthetized rat; conditions: iv
Procedure: Normotensive rats were anesthetized with sodium pentobarbital (50 mg/kg, j.p.) and placed on a heated surgical table. Cannulas were inserted into the femoral artery and […] to allow the measurement of arterial pressure and to facilitate the intravenous administration of test compounds. The animals was allowed to equilibrate for 10 minutes after surgery. Mean arterial pressure was continuously measured and recorded and heart rate was monitored using the arterial pressure pulse to trigger a cardiotachometer. After baseline parameters were established and recorded, increasing doses (1, 3, 10, 30, 100, 300 and 1000 μg/kg) of the compound of the invention to be tested were administered intravenously. Maximal changes in the cardiovascular parameters were observed after each dose of the adenosine agonist. Only one compound was administered per rat.

swine coronary arteries = test: In vitro vasorelaxation in isolated swine coronary arteries (PGF2α-contracted rings); format: cell-based; conditions: Sus scrofa, Table II
Procedure: Swine coronary arteries were obtained from a local slaughter house, dissected carefully and cleaned of fat, blood and adhering tissue. Rings approximately 2-3 mm wide were cut and transferred to water-jacketed tissue baths (10 ml) filled with warm (37° C.), oxygenated (O2 /CO2 :95%/5%) Krebs-Henseleit buffer and mounted on L-shaped hooks between stainless steel rods and a force transducer. […] Rings were equilibrated for 90 minutes with frequent buffer changes at a resting tension of 5 g In order to assure optimal tension development, arterial rings were primed twice with 36 mM KCl and once with 10 μm. PGF2α, before being exposed to 3 μM PGF2α. […] Tension achieved with 3 μM PGF2α was considered .equivalent to 100%; all other values were expressed as a percentage of that maximum.

A2 adenosine receptor = A2 adenosine receptor (Rattus norvegicus, UniProt P30543); test: biochemical; conditions: rat brain striatum membranes, 3H-CGS 21680; Table II; read-out: Adenosine Receptor Binding Activity/IC50 (nM) A2
A1 adenosine receptor = target: T1, A1 adenosine receptor (Rattus norvegicus, UniProt P25099); test: biochemical; conditions: rat whole brain membranes, 3H-CHA; Table II; read-out: Adenosine Receptor Binding Activity/IC50 (nM) A1
T1 sequence (P25099 1-326): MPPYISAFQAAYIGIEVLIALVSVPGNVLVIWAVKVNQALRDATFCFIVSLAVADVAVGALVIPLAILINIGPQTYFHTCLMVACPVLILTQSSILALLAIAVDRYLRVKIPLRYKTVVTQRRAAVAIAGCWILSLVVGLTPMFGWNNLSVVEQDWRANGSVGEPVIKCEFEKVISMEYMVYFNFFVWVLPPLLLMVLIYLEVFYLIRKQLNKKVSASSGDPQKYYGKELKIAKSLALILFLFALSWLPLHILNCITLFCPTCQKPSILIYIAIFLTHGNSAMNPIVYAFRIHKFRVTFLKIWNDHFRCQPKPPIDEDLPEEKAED
Procedure: Non-specific binding was assessed in the presence of 1 mM theophylline.
The assays were run in glass test tubes in duplicate at 25° C. Once the membranes were added, the tubes were vortexed and incubated at 25° C. for 60 minutes (A1 assay) or 90 minutes (A2 assay) on a rotary shaker. The assay tubes were vortexed halfway through the incubation and again near the end. The assays were terminated by rapid filtration through 2.4 cm GF/B filters using a Brandel Cell Harvestor. The test tubes were washed three times with cold 50 mM tris-HCl (pH 7.7 or 7.4), with filtration being completed within 15 seconds. The damp filter circles were placed in glass scintillation vials filled with 10 ml of Aquasol II (New England Nuclear). The vials were allowed to shake overnight on a rotary shaker and were placed into a liquid scintillation analyzer for two minute counts. IC50 values for receptor binding, i.e. the concentration at which a compound of the invention displaced the radiolabeled standard, were obtained using a curve-fitting computer program (RS/1, Bolt, Beranek and Newman, Boston, Mass.).

[3] = dose lowering heart rate by 25%, read-out: Blood Press/Heart Rate Anesthetized Rat HR/ED25
[4] = dose lowering mean arterial pressure by 25%, read-out: Blood Press/Heart Rate Anesthetized Rat MAP/ED25
[5] = 50% reduction in tension, 3 μM PGF2α, read-out: Vasorelaxation in Swine Coronary Artery/IC50

Chain of A2 adenosine receptor (P30543 whole entry): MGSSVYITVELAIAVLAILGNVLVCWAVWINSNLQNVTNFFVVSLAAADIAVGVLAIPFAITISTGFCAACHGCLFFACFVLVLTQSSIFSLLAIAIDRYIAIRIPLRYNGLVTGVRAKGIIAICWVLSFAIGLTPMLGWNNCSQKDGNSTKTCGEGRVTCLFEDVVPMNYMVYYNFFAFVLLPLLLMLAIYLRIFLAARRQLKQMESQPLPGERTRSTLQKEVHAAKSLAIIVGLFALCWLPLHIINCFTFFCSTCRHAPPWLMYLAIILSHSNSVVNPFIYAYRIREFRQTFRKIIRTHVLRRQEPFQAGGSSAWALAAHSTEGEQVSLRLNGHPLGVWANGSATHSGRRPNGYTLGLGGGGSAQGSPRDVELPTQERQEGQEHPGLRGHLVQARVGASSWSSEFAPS

Structure (SMILES)	EC50 (swine coronary arteries; [5]) [µM]	IC50 (A2 adenosine receptor) [nM]	IC50 (A1 adenosine receptor) [nM]	ED25 [2, 3] [µg/kg]	ED25 [2, 4] [µg/kg]	also measured
OC[C@H]1O[C@@H](n2cnc3c(N[C@@H]4CC=CC[C@H]4c4cccs4)ncnc32)[C@H](O)[C@@H]1O (relative stereo) [Example 4, N6-[trans-2-(thiophen-2-yl)cyclohex-4-en-yl]adenosine]	0.73			19	13	SHR HR/% ([1]; 5 mg/kg, D = decrease): 20%; SHR MAP/% ([1]; 5 mg/kg, D = decrease): 28%
OC[C@H]1O[C@@H](n2cnc3c(N[C@@H]4CCCC[C@H]4c4cccs4)ncnc32)[C@H](O)[C@@H]1O (relative stereo) [Example 7, N^6-[trans-2-(thiophen-2-yl)-cyclohex-1-yl]adenosine]	4			18	6	SHR HR/% ([1]; 5 mg/kg, D = decrease): 22%; SHR MAP/% ([1]; 5 mg/kg, D = decrease): 45%
CCNC(=O)[C@H]1C[C@@H](n2cnc3c(NCCc4scnc4C)ncnc32)[C@H](O)[C@@H]1O (relative stereo) [Example 24, (±)-N^6-[2-(4"-methyl-5"-thiazolyl)thyl]carbocyclic adenosine-5'-N-ethyl carboxamide]				> 10	6	SHR MAP/% ([1]; 5 mg/kg, D = decrease): 17%; SHR HR/% ([1]; 5 mg/kg, I = increase): 6%
CCNC(=O)[C@H]1C[C@@H](n2cnc3c(NCCNc4nc5ccccc5s4)ncnc32)[C@H](O)[C@@H]1O (relative stereo) [Example 29, (±)-N^6-[2-(2'-aminobenzothia-zolyl)ethyl]carbocyclic adenosine-5'-N-ethyl carboxamide]	22	> 1000	35.5	31	16	SHR HR/% ([1]; 5 mg/kg, D = decrease): 12%; SHR MAP/% ([1]; 5 mg/kg, D = decrease): 18%
CCNC(=O)[C@H]1C[C@@H](n2cnc3c(N[C@H](C)Cc4cccs4)ncnc32)[C@H](O)[C@@H]1O (single isomer, unassigned) [Example 27]	0.043					SHR MAP/% ([1]; 1 mg/kg, D = decrease): 27%; SHR HR/% ([1]; 1 mg/kg, I = increase): 1%
C[C@H](Cc1cc2ccccc2s1)Nc1ncnc2c1ncn2[C@@H]1O[C@H](CO)[C@@H](O)[C@H]1O [Example 15, N^6-[(R)-1-methyl-2-(2'benzo-[b]-thiophenyl)ethyl]adenosine]		1000		1.4	1.5	EC50 (swine coronary arteries; read-out: Vasorelaxation in Swine Coronary Artery/IC50 (μM), 50% reduction in tension, 3 μM PGF2α): 2.45 µM
CC(C)(Cc1cccs1)Nc1ncnc2c1ncn2[C@@H]1O[C@H](CO)[C@@H](O)[C@H]1O [Example 17, N^6-[2-(1,1-dimethyl-2'-thiophenyl)ethyl]adenosine]	18.8	5250	67.6			
OC[C@H]1O[C@@H](n2cnc3c(NCc4nc(-c5ccccc5)cs4)ncnc32)[C@H](O)[C@@H]1O [Example 19]	0.75	1000	36			
C[C@H](Cc1sccc1Cl)Nc1ncnc2c1ncn2[C@@H]1O[C@H](CO)[C@@H](O)[C@H]1O [Example 32, N^6-[1-methyl-2-(3-chlorothien-2-yl)ethyl]adenosine]			0.049			

More lines, main results first:

EC50 (swine coronary arteries; [5]) [µM]	IC50 (A2 adenosine receptor) [nM]	IC50 (A1 adenosine receptor) [nM]	Structure (SMILES)	ED25 [2, 3] [µg/kg]	ED25 [2, 4] [µg/kg]	also measured
19.1	> 1000	> 1000	CCNC(=O)[C@H]1C[C@@H](n2cnc3c(N[C@H](C)Cc4ccc(Cl)s4)ncnc32)[C@@H]2OC(C)(C)O[C@@H]21 [6(1), (-)-[2S-[2α,3α-dimethylmethylenedioxy-4-β-[N6-[2-(5-chloro-2-thienyl)-(1R)-1-methylethyl]amino]-9-adenyl]cyclopentane]-1-β-N-ethylcarboxamide]			
11.9	1000	4	OC[C@H]1O[C@@H](n2cnc3c(NCCNc4nc5ccccc5s4)ncnc32)[C@H](O)[C@@H]1O [Example 9, N^6-[2-(2'-aminobenzothia-zolyl)ethyl]adenosine]	4	5	
	> 1000	7.4	CCOc1ccc2nc(SCCNc3ncnc4c3ncn4[C@@H]3O[C@H](CO)[C@@H](O)[C@H]3O)sc2c1 [Example 11]			
0.5	224	23	Cc1ncsc1CCNc1ncnc2c1ncn2[C@@H]1O[C@H](CO)[C@@H](O)[C@H]1O [Example 12, N^6-[2-(4'-methylthiazol-5'-yl)-ethyl]adenosine]	17	4	
0.24	191	41	OC[C@H]1O[C@@H](n2cnc3c(NCCc4nccs4)ncnc32)[C@H](O)[C@@H]1O [Example 13, N^6-[2-(2'-thiazolyl)ethyl]-adenosine]	> 10	3	
	> 1000	79.4	Cc1nc(CCNc2ncnc3c2ncn3[C@@H]2O[C@H](CO)[C@@H](O)[C@H]2O)cs1 [Example 14, N^6-[2-(2'-methyl-4'-thiazolyl)-ethyl]adenosine]			
0.46	52	166	Cc1csc(CNc2ncnc3c2ncn3[C@@H]2O[C@H](CO)[C@@H](O)[C@H]2O)n1 [Example 18, N^6-[2-(4'-methyl-2'-thiazolyl)-methyl]adenosine]	> 10	2	
4.4	891	0.32	CCNC(=O)[C@H]1O[C@@H](n2cnc3c(NCCNc4nc5ccccc5s4)ncnc32)[C@H](O)[C@@H]1O [Example 23]	7	6	
0.072	23	1.6	CCNC(=O)[C@H]1C[C@@H](n2cnc3c(N[C@H](CC)Cc4sccc4Cl)ncnc32)[C@H](O)[C@@H]1O [Example 34]			
0.493	43.4	8.8	CCNC(=O)[C@H]1C[C@@H](n2cnc3c(N[C@H](C)Cc4ccc(Cl)s4)ccnc32)[C@H](O)[C@@H]1O [Example 36, [1S-[1α,2β,3β,4α(S*)]]-4-[7-[[2-(5-chloro-2-thienyl)-1-methylethyl]amino]-3 H-imidazo[4,5-b]pyridin-3-yl]-N-ethyl-2,3-dihydroxycyclopentanecarboxamide]			
0.316	331	55	CCNC(=O)[C@H]1C[C@@H](n2cnc3c(N[C@H](C)Cc4ccc(Cl)s4)ncnc32)[C@@H]2OC(=O)O[C@@H]21 [Example 44, (2S)-2α,3α-dihydroxy-4β-[N6-[2-(5-chloro-2-thienyl)-(1R)-1-methylethyl]amino-9-adenyl]cyclopentane-1β-N-ethylcarboxamide-2,3-carbonate]			
